Experimental data from patent US6596772B1, “Phosphate mimics and methods of treatment using phosphatase inhibitors” (Sugen, Inc., priority 1999, dated 2003).

Legend:
Assay in all cases: PTP IC50 assay, fluorescent substrate DiFMUP
Assay type in all cases: biochemical
PTP SHP2 = molecular target: T1, PTP SHP2 (Homo sapiens, UniProt Q06124); details: DiFMUP as substrate, 25° C.; read-out: PTP IC50 SHP2
T1 construct: The catalytic domain was amplified using the following oligonucleotides; made in house; host or cells: Sf-9 insect cells (pFastBac-G2T)
T1 sequence (Q06124 247-517 limits assumed): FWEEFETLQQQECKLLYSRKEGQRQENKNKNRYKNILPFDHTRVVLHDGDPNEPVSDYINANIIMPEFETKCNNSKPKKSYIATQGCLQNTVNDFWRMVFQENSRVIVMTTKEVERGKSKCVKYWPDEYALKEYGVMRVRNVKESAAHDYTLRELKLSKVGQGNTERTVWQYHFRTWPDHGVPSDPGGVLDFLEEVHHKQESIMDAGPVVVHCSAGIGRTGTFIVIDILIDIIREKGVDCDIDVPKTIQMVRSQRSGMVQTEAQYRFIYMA
Description: SHP-2 cDNA was used as described earlier (Vogel W., et al.,1993, Science, 259:1611-4). The catalytic domain was amplified using the following oligonucleotides 5′oligo: 5′-[…]-3′ (SEQ ID NO: 2) 3′oligo: 5′-[…]-3′ (SEQ ID NO: 3) and subsequently subcloned into BamH1-Xba-1 sites. It was then ligated into pfas Bac-G2T BamH1-Xba-1 sites.
(§1) The following in vitro assay procedure is preferred to determine the level of activity and effect of the different compounds of the present invention on one or more of the PTPs. Similar assays can be designed along the same lines for any PTP using techniques well known in the art.
(§2) The catalytic assays described herein are performed in a 96-well format. The general procedure begins with the determination of PTP optimal pH using a three-component buffer system that minimizes ionic strength variations across a wide range of buffer pH. Next, the Michaelis-Menten constant, or Km, is determined for the substrate 6,8-difluoro-4-methylumbelliferyl phosphate (DiFMUP). This Km value is subsequently used as the substrate reaction concentration for compound screening. Finally, the test PTP is exposed to varying concentrations of compound for fifteen minutes and allowed to react with substrate for ten minutes. The results are plotted as percent inhibition versus compound concentration and the IC50 interpolated from the plot.
(§3) All assays were performed using DiFMUP as substrate. The optimum pH and substrate Km was determined for each PTP used.
(§4) PTPase activity was assayed at 25° C. in a 100-μl reaction mixture containing an appropriate concentration of DiFMUP as substrate. The reaction was initiated by addition of the purified PTP and quenched after 10 min by addition of 1% H2O2/100 mM NaCl. The non-enzymatic hydrolysis of the substrate was corrected by measuring the control without the addition of the enzyme. The amount of DiFMU produced was determined from the increase in the fluorescence (360 nm excitation/460 nm emission) over that of background in the absence of PTPase. To determine the kinetic parameter, Km, the initial velocities were measured at various substrate concentrations and the data were fitted to the Michaelis equation where velocity=(Vmax*[S])/(Km+[S]), and [S]=substrate reaction concentration.
(§5) The effect of the compounds on PTP was evaluated at 25° C. using DiFMUP as substrate. PTP was pre-incubated for fifteen minutes with various concentrations of compound. Substrate was then added at a fixed concentration (usually equal to the Km previously calculated). After 10 minutes, the reaction was quenched. The hydrolysis of DiFMUP was followed as described above. The percent inhibition was calculated as follows: Percent Inhibition=[(control signal−compound signal)/control signal]×100%. The IC50 was then determined by interpolation of a percent inhibition versus compound concentration plot.
(§6) Plasmids designed for bacterial GST-PTP fusion protein expression were derived by insertion of PCR-generated human PTP fragments into pGEX vectors (Pharmacia Biotech). Several of these constructs were then used to subclone phosphatases into pFastBac-1 for expression in Sf-9 insect cells. Oligonucleotides used for the initial amplification of PTP genes are as described above. The cDNAs were prepared using the Gilbo BRL superscript preamplification system on RNAs purchased from Clontech.

PTP 1B = molecular target: T2, PTP 1B (Homo sapiens, UniProt P18031); details: DiFMUP as substrate, 25° C.; read-out: PTP IC50 1B
T2 construct: made in house; host or cells: Sf-9 insect cells (pFastBac-G2T)
T2 sequence (P18031 1-435): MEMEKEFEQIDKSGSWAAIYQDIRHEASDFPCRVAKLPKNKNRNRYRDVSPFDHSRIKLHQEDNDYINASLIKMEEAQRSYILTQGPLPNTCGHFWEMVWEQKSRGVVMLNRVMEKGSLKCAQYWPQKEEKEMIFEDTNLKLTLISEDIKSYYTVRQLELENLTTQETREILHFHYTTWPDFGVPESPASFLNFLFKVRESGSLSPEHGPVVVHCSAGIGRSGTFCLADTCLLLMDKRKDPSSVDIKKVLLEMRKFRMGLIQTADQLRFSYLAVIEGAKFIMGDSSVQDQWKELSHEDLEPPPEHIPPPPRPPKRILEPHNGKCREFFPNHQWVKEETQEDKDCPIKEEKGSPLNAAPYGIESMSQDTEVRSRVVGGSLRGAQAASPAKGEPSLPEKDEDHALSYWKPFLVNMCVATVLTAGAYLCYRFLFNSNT
Description: The PTP1b cDNA was amplified from human placenta single strand cDNA (Clontech RNA) using the following oligonucleotides: 5′oligo: 5′-[…] (SEQ ID NO: 4) 3′oligo: 5′-[…] (SEQ ID NO: 5) It was subsequently ligated into pFasBac G2TBamH1Xba-1 sites.
as §1, §2, §3, §4, §5, §6

PTP EPSILON = molecular target: T3, PTP EPSILON (Homo sapiens, UniProt P23469); details: DiFMUP as substrate, 25° C.; read-out: PTP IC50 Epilson
T3 construct: made in house; host or cells: Sf-9 insect cells (pFastBac-G2T); a pGEX 6P-1 construct also existed
Description: The PTPepsilon cDNA was amplified from human placenta single-strand cDNA (Clontech RNA) using the following oligonucleotides: 5′oligo: 5′-[…]-3′ (SEQ ID NO: 6) 3′oligo: 5′-[…]-3′ (SEQ ID NO: 7) After cloning this PCR product into the Bam HI/Xho I sites of pGEX 6P-1, this phosphatase was subcloned using the same restriction sites in pFastBac-G2T.
as §1, §2, §3, §4, §5, §6

T3 sequence (P23469 80-393 limits assumed): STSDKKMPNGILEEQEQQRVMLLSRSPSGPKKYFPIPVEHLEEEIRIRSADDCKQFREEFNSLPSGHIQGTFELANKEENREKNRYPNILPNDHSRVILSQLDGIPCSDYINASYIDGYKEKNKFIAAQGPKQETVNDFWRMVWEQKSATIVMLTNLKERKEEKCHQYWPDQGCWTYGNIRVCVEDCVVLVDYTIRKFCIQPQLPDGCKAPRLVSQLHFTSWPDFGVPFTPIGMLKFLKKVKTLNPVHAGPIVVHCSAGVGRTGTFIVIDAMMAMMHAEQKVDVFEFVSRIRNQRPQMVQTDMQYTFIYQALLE

Row | IC50 (PTP SHP2) | IC50 (PTP 1B) | IC50 (PTP EPSILON) | SMILES
1 | > 100 µM | > 100 µM | > 100 µM | Cn1c(C(=O)O)cc2cc(NS(=O)(=O)C(F)(F)F)ccc21 [Example 78, 1-Methyl-5-trifluoromethanesulfonylamino-1H-indole-2-carboxylic acid]
2 | > 100 µM | > 100 µM | > 20 µM | Cc1cc2cc(NS(=O)(=O)C(F)(F)F)ccc2n1CC(=O)O [Example 79, (2-Methyl-5-trifluoromethanesulfonylamino-indol-1-yl)-acetic acid]
3 | 58.1 µM | > 20 µM | 26.9 µM | Cn1c(C(=O)Nc2ccccc2)cc2cc(NS(=O)(=O)C(F)(F)F)ccc21 [Example 80, 1-Methyl-5-trifluoromethanesulfonylamino-1H-indole-2-carboxylic acid phenylamide]
4 | 6.2 µM | 14.6 µM | 4.4 µM | O=C(Nc1ccccc1)c1cc2cc(NS(=O)(=O)C(F)(F)F)ccc2[nH]1 [Example 81, 5-Trifluoromethanesulfonylamino-1H-indole-2-carboxylic acid phenylamide]
5 | 87.7 µM | > 20 µM | 7.7 µM | Cn1c(C(=O)Nc2cccc(C(=O)O)c2)cc2cc(NS(=O)(=O)C(F)(F)F)ccc21 [Example 82, 3-[(1-Methyl-5-trifluoromethanesulfonylamino-1H-indole-2-carbonyl)-amino]-benzoic acid]
6 | 58.5 µM | > 20 µM | 8.4 µM | O=C(O)c1cccc(NC(=O)c2cc3cc(NS(=O)(=O)C(F)(F)F)ccc3[nH]2)c1 [Example 83, 3-[(5-Trifluoromethanesulfonylamino-1H-indole-2-carbonyl)-amino]-benzoic acid]
7 | 62 µM | > 20 µM | 16.1 µM | O=C(O)c1ccc(NC(=O)c2cc3cc(NS(=O)(=O)C(F)(F)F)ccc3[nH]2)cc1 [Example 84, 4-[(5-Trifluoromethanesulfonylamino-1H-indole-2-carbonyl)-amino]-benzoic acid]
8 | > 100 µM | > 20 µM | > 20 µM | Cc1cc2cc(NS(=O)(=O)C(F)(F)F)ccc2n1CC(=O)Nc1cccc(C(=O)O)c1 [Example 86, 3-[2-(2-Methyl-5-trifluoromethanesulfonylamino-indol-1-yl)-acetylamino]-benzoic acid]
9 | 97 µM | > 20 µM | > 20 µM | Cc1cc2cc(NS(=O)(=O)C(F)(F)F)ccc2n1CC(=O)NCc1ccc(C(=O)O)cc1 [Example 87, 4-{[2-(2-Methyl-5-trifluoromethanesulfonylamino-indol-1-yl)-acetylamino]-methyl}-benzoic acid]
10 | 31.4 µM | > 20 µM | 8.2 µM | Cc1cc2cc(NS(=O)(=O)C(F)(F)F)ccc2n1CC(=O)OC(C)(C)C [Example 88, (2-Methyl-5-trifluoromethanesulfonylamino-indol-1-yl)-acetic acid tert-butyl ester]
11 | 69 µM | > 20 µM | > 20 µM | CCOC(=O)c1cc2cc(NS(=O)(=O)C(F)(F)F)ccc2n1C [Example 89, 1-Methyl-5-trifluoromethanesulfonylamino-1H-indole-2-carboxylic acid ethyl ester]
12 | 64 µM | > 20 µM | 35.9 µM | O=C(O)c1ccc2cc(NS(=O)(=O)C(F)(F)F)ccc2c1 [Example 90, 6-Trifluoromethanesulfonylamino-naphthalene-2-carboxylic acid]
13 | 25.9 µM | > 20 µM | > 20 µM | O=C(O)c1ccc2cc(CN(Cc3ccc4cc(C(=O)O)ccc4c3)S(=O)(=O)C(F)(F)F)ccc2c1 [Example 91, N,N-Bis[(6-carboxyl-naphthalen-2-yl)methyl]trifluoromethanesulfonamide]
14 | 48 µM | > 20 µM | 5.1 µM | CN(Cc1ccc2cc(C(=O)O)ccc2c1)S(=O)(=O)C(F)(F)F [Example 92, 6-[(Methyl-trifluoromethanesulfonyl-amino)-methyl]-naphthalene-2-carboxylic acid]
